Experimental data from article PMC11310889, “Ribosomal translation of fluorinated non-canonical amino acids for de novo biologically active fluorinated macrocyclic peptides” (Chemical Science, 2024).
Where a SMILES comes first, the peptide text is derived from it. Bridges are numbered along the chain shown (N, C = ends). [ ]: non-standard residue; d: D form. Phe(3,4-F2) = N[C@@H](Cc1ccc(F)c(F)c1)C(=O)O; dPhe(4-F) = N[C@H](Cc1ccc(F)cc1)C(=O)O

Key:
[1] = target: human EphA2 (Homo sapiens, UniProt P29317); assay: SPR binding kinetics to EphA2; conditions: Biacore T200, 25 °C, HBS-EP+ buffer pH 7.4 with 0.1% DMSO, biotinylated human EphA2 on CAP chip (1050 RU), single cycle kinetics, five concentrations, 1:1 model
Protocol: The cDNAs was detected by QuantStudio™ real-time PCR system (Applied Biosystems), then PCR was recovered by phusion® high-fidelity DNA polymerase and transcribed in vitro to construct a mRNA library rich in BAM complex(or EphA2) binding sequences to prepare for the next round of screening. Starting with the second round of screening, six more negative selections were added before positive selections to remove unwanted beads binders. Finally, the cDNAs recovered in the sixth(or fifth) round was deep sequencing using NovaSeq 6000 system (Ilumina).
General procedures for solid-phase synthesis of selected peptides
In this study, macrocyclic peptides and fluorinated macrocyclic peptides were synthesized by standard Fmoc solid phase peptide synthesis (SPPS). Firstly, a mixture (0.3 mmol Fmoc-Gly-OH and 0.3 mmol HOBT dissolved in 8 mL DMF and 0.5 mL DIC) was prepared, and 0.5 g Rink Amide MBHA resin was added to the mixture, and then reacted under nitrogen protection for 1.5 h. The resin was filtered and washed at least three times with DMF and DCM, and a deprotective agent (DMF solution containing 20% piperidine) was added to remove the Fmoc protective group. Then a new mixture (0.9 mmol Fmoc-AA-OH and 0.9 mmol HOBT dissolved in 10 mL DMF and 1 mL DIC) was prepared and condensation reaction was carried out under nitrogen protection for 1 hour.
By repeating the steps of deprotection and condensation reaction, the desired peptide was finally obtained, and the bromoacetyl group was connected to the N-terminal free α-amino group of the resin peptide. […]
The binding kinetics between the selected peptides and EphA2 were tested by SPR using a Biacore T200 instrument (GE Healthcare) at 25 °C. […] Five different concentrations of peptides were injected at the flow rate of 30 μL/min, and their kinetic constants were determined. The binding kinetic was quantified by single cycle kinetic method. Finally, the binding sensorgrams was analyzed by Biacore evaluation software, and the standard 1:1 model was used for fitting. […]

[2] = system: T1, BAM complex; assay: SPR binding kinetics to BAM complex; set-up: species or system E. coli; conditions: Biacore T200, 25 °C, multi-cycle kinetics, 1:1 model
T1 construct: made in house; host or cells: E. coli BL21(DE3), strain obtained from Xinmiao Fu, Fujian Normal University
Protocol: Expression and purification of the BAM complex
The E. coli BL21(DE3) cells containing all five Bam proteins (BamA, B, C, D, and E) was obtained from Xinmiao Fu of Fujian Normal University and used for expression and purification.
The BL21(DE3) cells plated onto LB-ampicillin agar plates and incubated overnight at 37 °C. A 20 mL culture incubated overnight at 37°C was prepared from a single colony in LB medium supplemented with 100 mg/L of ampicillin. The strain was inoculated into fresh LB liquid medium according to the inoculation ratio of 1:100 and incubated at 37 ℃ for about 4 hours until the OD600 reached about 1.0. The temperature of the incubator was set to 20 ℃ and then cultured for 1 hour, and 200 uM IPTG was added to induce overnight. First of all, the induced cells were collected by freezing centrifuge 3000 rpm for 30 min, and the collected cells were resuspended with Buffer 1 (20 mM Tris-HCl, pH 8.0, 150 mM NaCl), and then crushed low temperature and pressure with a high pressure crusher. The broken cells were centrifuged 1 hour at 4 °C for18000 rpm by high speed centrifuge. After centrifugation at 4 °C 18000 rpm for 1 hour, and the supernatant was discarded and the cell membrane was collected. The collected cell membranes were resuscitated with Buffer 2 (20 mM Tris-HCl, pH 8.0, 300 mM NaCl, 1% DDM) and then dissolved at 4 °C for 2 hours. After dissolving the membrane, the supernatant was collected by high speed centrifuge at 18,000 rpm. The 20 mM imidazole was added to the supernatant and incubated with a 2 mL Ni-NTA sefinoseTM resin column for 1 hour. After incubation, 10 column volumes were washed with Buffer 3 (20 mM Tris-HCl, pH 8.0, 300 mM NaCl, 0.025%DDM) containing 30 mM and 50 mM imidazole respectively. Then, the protein was eluted with Buffer 3 containing 200 mM imidazole, and the eluted protein was collected. Finally, using the 20-fold molar excess of EZ-LinkTM Sulfo-NHS-LC-LC-Biotin for BAM complex, and incubate reaction on ice for 2 hours. After the protein labeling is completed, dialysis is used to purify the labeled protein to remove the remaining unreacted and hydrolyzed biotin reagents. […]
The mobile phase was 0.1% TFA aqueous solution / acetonitrile containing 0.1%
TFA. The purified macrocyclic peptides and fluorinated macrocyclic peptides were confirmed by electrospray ionization mass spectrometry (ESI-MS).
Binding kinetics analysis by SPR
The binding kinetics between the selected peptides and EphA2 were tested by SPR using a Biacore T200 instrument (GE Healthcare) at 25 °C. In this study, the running buffer was HBS-EP+ buffer (10 mM HEPES-KOH (pH 7.4), 150 mM NaCl, 50 μM EDTA, 0.05% Tween 20) containing 0.1% DMSO. Biotin capture kit (GE Healthcare) was used to fix human EphA2 on the surface of Biacore CAP chip with a density of 1050 RU. Five different concentrations of peptides were injected at the flow rate of 30 μL/min, and their kinetic constants were determined. The binding kinetic was quantified by single cycle kinetic method. Finally, the binding sensorgrams was analyzed by Biacore evaluation software, and the standard 1:1 model was used for fitting.
The binding kinetics between the selected peptides and BAM complex were tested by SPR using […]
a Biacore T200 instrument (GE Healthcare) at 25 °C. In this study, the running buffer was HBS-EP+ […]
0.1% DMSO. The Series S Sensor Chip CM5 was used to fix BAM complex on the surface of Biacore CM5 chip with a density of 9500 RU. The binding mode was multi-cycle kinetics (one sample concentration one cycle). Finally, the binding sensorgrams was analyzed by Biacore evaluation software, and the standard 1:1 model was used for fitting.
Preliminary evaluation of the antibacterial activity of macrocyclic peptides against E. coli […]
Remove the previously preserved E. coli W3110 cells from the -80 °C refrigerator, scrape a little, inoculate it into 1 mL LB liquid medium, and culture overnight in 37°C shaker. The strain was […]

Sequence of human EphA2 (P29317 24-976): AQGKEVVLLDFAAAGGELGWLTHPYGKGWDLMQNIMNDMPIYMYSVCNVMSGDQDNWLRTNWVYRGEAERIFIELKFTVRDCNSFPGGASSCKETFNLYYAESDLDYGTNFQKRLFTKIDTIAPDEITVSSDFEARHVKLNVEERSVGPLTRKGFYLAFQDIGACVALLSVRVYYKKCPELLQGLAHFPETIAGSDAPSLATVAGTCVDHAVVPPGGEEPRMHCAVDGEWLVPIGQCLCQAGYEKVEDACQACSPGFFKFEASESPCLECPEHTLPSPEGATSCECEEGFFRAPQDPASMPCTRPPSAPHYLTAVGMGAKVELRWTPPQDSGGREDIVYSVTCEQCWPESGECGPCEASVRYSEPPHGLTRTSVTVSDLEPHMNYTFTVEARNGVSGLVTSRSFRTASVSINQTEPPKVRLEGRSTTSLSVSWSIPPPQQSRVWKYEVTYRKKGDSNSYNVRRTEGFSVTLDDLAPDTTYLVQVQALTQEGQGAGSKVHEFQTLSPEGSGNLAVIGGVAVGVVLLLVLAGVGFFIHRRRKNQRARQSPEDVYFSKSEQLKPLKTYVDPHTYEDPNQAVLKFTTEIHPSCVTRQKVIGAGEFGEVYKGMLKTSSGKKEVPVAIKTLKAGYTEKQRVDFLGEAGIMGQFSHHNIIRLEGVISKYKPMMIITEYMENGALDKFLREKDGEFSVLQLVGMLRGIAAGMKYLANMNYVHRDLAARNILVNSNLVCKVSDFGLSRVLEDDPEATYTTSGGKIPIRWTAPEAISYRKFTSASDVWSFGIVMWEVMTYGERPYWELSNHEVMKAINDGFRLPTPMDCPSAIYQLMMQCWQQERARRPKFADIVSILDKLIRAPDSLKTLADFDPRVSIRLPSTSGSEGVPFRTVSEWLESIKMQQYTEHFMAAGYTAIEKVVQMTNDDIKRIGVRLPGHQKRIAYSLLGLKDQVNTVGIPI
T1 sequence (P0A903 25-344): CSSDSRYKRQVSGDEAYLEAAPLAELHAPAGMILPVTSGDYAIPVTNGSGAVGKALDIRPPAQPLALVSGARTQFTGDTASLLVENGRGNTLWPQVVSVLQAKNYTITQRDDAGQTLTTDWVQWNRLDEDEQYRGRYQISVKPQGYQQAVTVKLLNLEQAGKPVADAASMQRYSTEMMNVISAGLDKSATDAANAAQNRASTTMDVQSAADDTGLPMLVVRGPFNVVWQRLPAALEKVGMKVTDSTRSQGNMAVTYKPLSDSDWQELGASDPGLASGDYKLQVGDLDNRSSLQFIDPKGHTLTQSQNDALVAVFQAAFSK
T1 sequence (P0AC02 20-245, further chain): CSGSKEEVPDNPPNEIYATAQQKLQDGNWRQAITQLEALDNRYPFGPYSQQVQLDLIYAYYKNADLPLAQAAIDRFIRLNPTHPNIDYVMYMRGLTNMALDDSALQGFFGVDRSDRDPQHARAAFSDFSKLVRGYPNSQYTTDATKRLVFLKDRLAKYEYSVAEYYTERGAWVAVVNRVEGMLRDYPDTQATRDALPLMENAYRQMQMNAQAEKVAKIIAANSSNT
T1 sequence (P0A937 20-113, further chain): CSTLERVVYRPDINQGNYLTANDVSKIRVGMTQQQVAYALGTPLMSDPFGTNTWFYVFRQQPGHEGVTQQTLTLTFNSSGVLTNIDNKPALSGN
T1 sequence (P77774 20-392, further chain): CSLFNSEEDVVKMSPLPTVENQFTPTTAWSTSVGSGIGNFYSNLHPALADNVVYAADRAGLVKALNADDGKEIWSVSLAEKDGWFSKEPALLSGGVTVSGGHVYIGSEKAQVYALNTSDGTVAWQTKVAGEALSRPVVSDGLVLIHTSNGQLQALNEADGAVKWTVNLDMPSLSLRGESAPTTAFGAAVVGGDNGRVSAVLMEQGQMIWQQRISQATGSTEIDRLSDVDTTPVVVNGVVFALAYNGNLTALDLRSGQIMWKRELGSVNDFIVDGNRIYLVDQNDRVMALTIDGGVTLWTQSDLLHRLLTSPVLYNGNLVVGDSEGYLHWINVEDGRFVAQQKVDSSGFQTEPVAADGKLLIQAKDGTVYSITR

Row | Kd [1] [nM] | Compound | ka for BAM complex ([2]; CM5 chip) | Kd ([2]; HBS-EP+ buffer pH 7.4 with 0.1% DMSO, BAM complex on CM5 chip (9500 RU)) [nM]
1 | 0.29 | Ep-F2-M2: variant of Ep-F2 measured by SPR (Fig. S4) to examine the role of fluorination (FHPLYNFGCWTKSG; Parent Ep-F2 is printed as Ac-(4-F-DPhe)HPLYN(2F-LPhe)GCWTKSG-NH2) | – | –
2 | – | CC[C@H](C)[C@@H]1NC(=O)[C@H](CC(C)C)NC(=O)[C@@H](Cc2ccc(O)cc2)NC(=O)CSC[C@@H](C(=O)NCC(N)=O)NC(=O)[C@H](C(C)C)NC(=O)[C@H](CCCNC(=N)N)NC(=O)[C@H](Cc2ccccc2)NC(=O)[C@@H]2CCCN2C(=O)[C@H](Cc2c[nH]cn2)NC(=O)[C@H](CO)NC(=O)[C@H](CCCNC(=N)N)NC(=O)[C@H](CO)NC(=O)[C@H](Cc2ccc(O)cc2)NC(=O)[C@H](Cc2c[nH]c3ccccc23)NC1=O [BAM-D1] ({CH2CO}-[dY]LIWYSRSHPFRVCG-NH2; thioether N-14) | 0.43 ×10 4 M-1s-1 | 763
3 | 9.9 | CC[C@H](C)[C@@H]1NC(=O)[C@@H](Cc2ccc(F)cc2)NC(=O)CSC[C@@H](C(=O)NCC(N)=O)NC(=O)[C@H](Cc2ccc(O)cc2)NC(=O)[C@H](CCCNC(=N)N)NC(=O)[C@H](CCC(N)=O)NC(=O)[C@H]([C@@H](C)O)NC(=O)[C@H]([C@@H](C)O)NC(=O)[C@H](Cc2ccc(F)c(F)c2)NC(=O)[C@H](CCCCN)NC(=O)[C@H](CC(C)C)NC(=O)[C@H](C)NC(=O)[C@H](Cc2ccc(O)cc2)NC(=O)[C@H](Cc2c[nH]c3ccccc23)NC1=O [Ep-F1] ({CH2CO}-[dPhe(4-F)]IWYALK[Phe(3,4-F2)]TTQRYCG-NH2; thioether N-14) | – | –
4 | 0.25 | CC(C)C[C@@H]1NC(=O)[C@@H]2CCCN2C(=O)[C@H](Cc2c[nH]cn2)NC(=O)[C@@H](Cc2ccc(F)cc2)NC(=O)CSC[C@@H](C(=O)N[C@@H](Cc2c[nH]c3ccccc23)C(=O)N[C@H](C(=O)N[C@@H](CCCCN)C(=O)N[C@@H](CO)C(=O)NCC(N)=O)[C@@H](C)O)NC(=O)CNC(=O)[C@H](Cc2ccc(F)c(F)c2)NC(=O)[C@H](CC(N)=O)NC(=O)[C@H](Cc2ccc(O)cc2)NC1=O [Ep-F2] ({CH2CO}-[dPhe(4-F)]HPLYN[Phe(3,4-F2)]GCWTKSG-NH2; thioether N-9) | – | –
